Experimental findings from article PMC5437225, “Picomolar, selective, and subtype-specific small-molecule inhibition of TRPC1/4/5 channels” (The Journal of Biological Chemistry, 2017) are described below.

As a reminder, the IC50 is the concentration that inhibits the measured activity by half.

In one experiment the target is T1, TRPC5 (Homo sapiens, UniProt Q9UL62).
T1 construct: homomer
T1 sequence (Q9UL62 1-973): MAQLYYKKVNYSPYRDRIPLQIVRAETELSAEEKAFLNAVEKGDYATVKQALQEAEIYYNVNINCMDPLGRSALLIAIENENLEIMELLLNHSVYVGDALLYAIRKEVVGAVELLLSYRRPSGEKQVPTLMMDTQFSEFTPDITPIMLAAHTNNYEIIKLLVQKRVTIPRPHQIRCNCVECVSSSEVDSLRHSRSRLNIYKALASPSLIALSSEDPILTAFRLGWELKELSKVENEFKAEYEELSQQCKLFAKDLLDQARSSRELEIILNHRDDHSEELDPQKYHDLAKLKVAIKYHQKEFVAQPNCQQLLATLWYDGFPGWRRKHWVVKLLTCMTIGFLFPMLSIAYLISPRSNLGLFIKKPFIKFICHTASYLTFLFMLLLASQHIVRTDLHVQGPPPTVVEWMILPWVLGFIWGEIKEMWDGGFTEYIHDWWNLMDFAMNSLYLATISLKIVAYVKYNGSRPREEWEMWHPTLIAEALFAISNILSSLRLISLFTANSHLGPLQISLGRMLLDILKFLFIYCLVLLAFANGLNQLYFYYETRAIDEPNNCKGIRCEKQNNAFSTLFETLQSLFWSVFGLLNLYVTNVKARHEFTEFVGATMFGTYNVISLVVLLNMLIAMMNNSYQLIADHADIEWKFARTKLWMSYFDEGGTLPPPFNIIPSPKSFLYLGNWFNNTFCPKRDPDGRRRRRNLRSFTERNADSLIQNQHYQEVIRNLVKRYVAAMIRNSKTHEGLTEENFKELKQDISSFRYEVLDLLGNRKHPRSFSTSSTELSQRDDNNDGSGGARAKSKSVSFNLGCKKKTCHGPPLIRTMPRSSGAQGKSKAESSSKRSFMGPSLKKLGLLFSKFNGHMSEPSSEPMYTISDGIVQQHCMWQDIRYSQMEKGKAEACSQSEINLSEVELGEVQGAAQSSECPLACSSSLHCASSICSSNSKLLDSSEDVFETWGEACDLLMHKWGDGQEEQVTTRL
The experiment is described as follows: fura-2 Ca2+ entry, FlexStation 96-well. It counts as cell-based. To be noted: activated by 10 nM (-)-englerin A; pH 7.4; room temperature; 30 min preincubation; read-out: C31 IC50. From the text: fura-2 Ca2+ entry, FlexStation 96-well on TRPC5

The target in a further experiment is T2, TRPC5-TRPC1 concatemer (Homo sapiens, UniProt P48995+Q9UL62).
T2 construct: concatemer of TRPC5 with TRPC1
T2 sequence (P48995 whole entry, one chain of several): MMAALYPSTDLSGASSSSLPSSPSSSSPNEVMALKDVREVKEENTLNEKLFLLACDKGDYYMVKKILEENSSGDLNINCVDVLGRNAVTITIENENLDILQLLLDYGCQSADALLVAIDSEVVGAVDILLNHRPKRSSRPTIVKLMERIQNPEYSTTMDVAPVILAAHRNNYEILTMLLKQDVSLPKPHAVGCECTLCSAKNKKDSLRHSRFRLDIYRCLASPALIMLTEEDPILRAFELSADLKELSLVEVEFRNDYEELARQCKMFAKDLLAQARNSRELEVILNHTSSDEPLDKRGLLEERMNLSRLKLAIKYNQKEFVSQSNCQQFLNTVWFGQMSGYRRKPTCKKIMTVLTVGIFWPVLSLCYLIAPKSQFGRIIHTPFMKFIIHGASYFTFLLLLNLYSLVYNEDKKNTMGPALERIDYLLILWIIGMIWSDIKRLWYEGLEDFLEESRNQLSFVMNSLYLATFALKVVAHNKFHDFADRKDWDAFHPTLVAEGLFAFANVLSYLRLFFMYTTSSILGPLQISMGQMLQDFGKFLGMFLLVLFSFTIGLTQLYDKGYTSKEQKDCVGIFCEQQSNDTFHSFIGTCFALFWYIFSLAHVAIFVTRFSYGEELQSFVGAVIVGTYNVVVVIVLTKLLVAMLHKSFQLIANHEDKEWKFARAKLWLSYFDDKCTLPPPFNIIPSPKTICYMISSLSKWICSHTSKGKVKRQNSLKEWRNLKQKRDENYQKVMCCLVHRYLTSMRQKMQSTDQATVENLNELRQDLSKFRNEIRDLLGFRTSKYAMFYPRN
The experiment is described as follows: fura-2 Ca2+ entry, FlexStation 96-well. In kind it is cell-based. To be noted: read-out: C31 IC50. An excerpt:
fura-2 Ca2+ entry, FlexStation 96-well on TRPC5-TRPC1 concatemer

As for `Cn1c(=O)n(CCCO)c(=O)c2c1nc(Oc1cccc(OC(F)(F)F)c1)n2Cc1ccc(Cl)cc1` [compound 31, C31], the figures for the IC50 at TRPC5 and at TRPC5-TRPC1 concatemer were 1300 pM and 199 pM, respectively.
